In patent US9415034B2, “Inhibitors and enhancers of uridine diphosphate-glucuronosyltransferase 2B (UGT2B)” (NATIONAL DEFENSE MEDICAL CENTER, priority 2005, dated 2016):

Tested on: UGT2B
Assay: in vitro
Conditions: for inhibition at 60 min, 8.5 μM / inhibition at 60 min, 85 μM / inhibition at 60 min, 850 μM / inhibition at 60 min, 8.5 µM / inhibition at 60 min, 85 µM / inhibition at 60 min, 850 µM / inhibition at 60 min: male, Sprague-Dawley, rat; for inhibition at 60 min, 8.5 μM / inhibition at 60 min, 85 μM / inhibition at 60 min, 850 μM / inhibition at 60 min, 8.5 µM / inhibition at 60 min, 85 µM / inhibition at 60 min, 850 µM: % Inhibition (Mean ± SD)
Experimental: In the following experiment, 27 different kinds of CHEs and 10 different excipients were used as UGT2B inhibitor in this invention. These CHEs are pure compounds available commercially, and were purchased from Sigma Chemical Co., Nacalai Tesque (Kyoto, Japan) and Indofine Chemical Co., Inc. (Somerville, N.J.). These UGT2B inhibitors are dissolved in alcohol at the concentration of 1, 10, 100 μM for the following experiment.
These excipients are dissolved in water and make up to 0.5%, 5%, 50% (wt %, w/v) for the following experiment. (Note: BRIJ is a registered trademark of ICI Americas, Inc.; Pluronic is a registered trademark of BASF Corporation.)
The Sprague-Dawley male rats, weighted 300-400 g are used as model animals in these experiments. The microsome is prepared as follows: • i. Sacrifice a rat after 12-16 hours fasting, take its liver; wipe dry the liver and weigh it. • ii. Add 300% (by volume) of cold 0.3M sucrose solution, and homogenize the liver. • iii. Centrifuge the homogenized liver suspension at 9000×g speed (KS-800, Kubota, made in Japan) for 10 min at 4° C. Collect the supernatant. • iv. Centrifuge the supernatant at 105,000×g speed (L8-60M, Beckman, made in USA) for 60 min at 4° C. • v. Remove the supernatant, add 0.3M sucrose (of the same volume) and repeat the homogenization. The homogenized liver suspension is the microsome. Store the microsome at −70° C.
Thaw the microsome before use. Add 5 μl/ml BRIJ®35 (Fisher et al. 2000, Drug Metabolism & Disposition. 28(5):560-6) into microsome by a ratio of microsome:BRIJ®35=8:1 (v/v).
The protein amount is determined as follows: • i. Take 0.1 ml microsome and dilute to 5 ml 0.85% NaCl (50-fold dilution, v/v). Take 0.2 ml of the diluted microsome and place it in a capped test tube (triple experiments). Separately, replacing microsome with 0.2 ml NaCl as the control. • ii. Add 2.2 ml Biuret regent (SIGMA, 690-A) into each test tube, mix well and store at room temperature for 10 min. • iii. Add 0.1 ml folin regent (SIGMA, 690-A), mix immediately, and store at room temperature for 30 min. Measure the absorbance at 550 nm wave length within the 30 min. Measure the concentration of protein in microsome based on the standard curve generated by various bovine albumin concentration and absorbance. 4. The Measurement of the Inhibition of UGT2B Activity in vitro • i. […] Mix solution (A) and 17 μl solution (B) thoroughly, place in a 37° C. water bath and shake at 125 rpm for 60 min. • iii. Add 1 ml ACN to interrupt the reaction. • iv. Centrifuge at 130,000×g speed at 4° C. for 5 min, and • v. […] 5.
Set the Ultra-violet detector's (SPD-10A, Shimadzu, Kyoto, made in Japan) wave length to 210 nm.
Those CHEs are commercially available pure compounds, acquired from Sigma Chemical Co., Nacalai Tesque (Kyoto, Japan) and […] (Somerville, N.J.). Their categories, names, sources, and chemical compositions are described in Table 5.

[1] = Table 6, enhancer 8.5 μM, negative = enhancement
[2] = Table 6, enhancer 85 μM, negative = enhancement
[3] = Table 6, enhancer 850 μM, negative = enhancement
[4] = inhibition rate on the metabolism of nalbuphine in microsome

SMILES: O=c1c(O)c(-c2ccc(O)cc2)oc2cc(O)cc(O)c12 [kaempferol, Kaempferol]
- inhibition at 60 min, 8.5 μM: -19.5 ± 14.2%
- inhibition at 60 min, 85 μM: -76 ± 27.3%
- inhibition at 60 min, 850 μM: -71.1 ± 4.51%

SMILES: CCCCCCCCCCCCO [lauryl alcohol, Lauryl Alcohol]
- inhibition at 60 min, 8.5 µM: 14.4 ± 3.37%
- inhibition at 60 min, 85 µM: 19.5 ± 3.46%
- inhibition at 60 min, 850 µM: 6.23 ± 6.75%

SMILES: O=C1C[C@@H](c2ccc(O[C@@H]3O[C@H](CO)[C@@H](O)[C@H](O)[C@H]3O)cc2)Oc2cc(O)ccc21 [liquiritin, Liquiritin]
- inhibition at 60 min, 8.5 μM: -9.38 ± 1.8%
- inhibition at 60 min, 85 μM: -17.7 ± 8.51%
- inhibition at 60 min, 850 μM: -29.2 ± 2.74%

SMILES: O=c1cc(-c2ccc(O)c(O)c2)oc2cc(O)cc(O)c12 [luteolin, Luteolin]
- inhibition at 60 min, 8.5 μM: -25.5 ± 26.6%
- inhibition at 60 min, 85 μM: -28.3 ± 15.2%
- inhibition at 60 min, 850 μM: -17.6 ± 12.1%

SMILES: O=c1cc(-c2ccc(O)c(O)c2)oc2cc(O[C@@H]3O[C@H](CO)[C@@H](O)[C@H](O)[C@H]3O)cc(O)c12 [luteolin-7-glucoside, Luteolin-7-Glucoside]
- % Inhibition (Mean ± SD) [1]: −45.053 ± 3.583%
- % Inhibition (Mean ± SD) [2]: −36.109 ± 9.203%
- % Inhibition (Mean ± SD) [3]: −47.869 ± 26.599%

SMILES: C[C@@H]1O[C@@H](O[C@H]2[C@H](Oc3cc(O)c4c(c3)O[C@H](c3ccc(O)cc3)CC4=O)O[C@H](CO)[C@@H](O)[C@@H]2O)[C@H](O)[C@H](O)[C@H]1O [narigin, Narigin]
- % Inhibition (Mean ± SD) [1]: −124.10 ± 16.541%
- % Inhibition (Mean ± SD) [2]: −80.70 ± 4.927%
- % Inhibition (Mean ± SD) [3]: −98.15 ± 5.276%

SMILES: COc1ccc([C@@H]2CC(=O)c3c(O)cc(O[C@@H]4O[C@H](CO)[C@@H](O)[C@H](O)[C@H]4O[C@@H]4O[C@@H](C)[C@H](O)[C@@H](O)[C@H]4O)cc3O2)cc1O [neohesperidin, Neohesperidin]
- % Inhibition (Mean ± SD) [1]: −66.586 ± 9.614%
- % Inhibition (Mean ± SD) [2]: −113.63 ± 8.986%
- % Inhibition (Mean ± SD) [3]: −113.46 ± 16.721%

SMILES: C[C@H](Cc1ccc(O)c(O)c1)[C@@H](C)Cc1ccc(O)c(O)c1 [nordihydroguaiaretic acid]
- inhibition at 60 min, 8.5 μM: -142 ± 41%
- inhibition at 60 min, 85 μM: -165 ± 23%
- inhibition at 60 min, 850 μM: -188 ± 16.6%
- inhibition at 60 min (rate of inhibition (enhancement of the metabolism of nalbuphine in liver microsome)): -188%

SMILES: CC1(C)CC[C@]2(C(=O)O)CC[C@]3(C)C(=CC[C@@H]4[C@@]5(C)CC[C@H](O)C(C)(C)[C@@H]5CC[C@]43C)[C@@H]2C1 [oleanolic acid, Oleanolic Acid]
- inhibition at 60 min, 8.5 μM (liver microsomes, probe nalbuphine, Table 6, enhancer 8.5 μM, negative = enhancement): -87.2 ± 24.4%
- inhibition at 60 min, 85 μM (liver microsomes, probe nalbuphine, Table 6, enhancer 85 μM, negative = enhancement): -136 ± 15.2%
- inhibition at 60 min, 850 μM (liver microsomes, probe nalbuphine, Table 6, enhancer 850 μM, negative = enhancement): -129 ± 22.1%

SMILES: COc1ccc([C@@H]2CC(=O)c3c(O)cc(O[C@@H]4O[C@H](CO)[C@@H](O)[C@H](O)[C@H]4O[C@@H]4O[C@@H](C)[C@H](O)[C@@H](O)[C@H]4O)cc3O2)cc1 [poncirin, Poncirin]
- % Inhibition (Mean ± SD) [1]: −16.068 ± 8.122%
- % Inhibition (Mean ± SD) [2]: −8.448 ± 8.261%
- % Inhibition (Mean ± SD) [3]: −7.098 ± 18.196%

SMILES: O=C(O)c1ccc(O)c(O)c1 [protocatechuic acid, Protocatechuic acid]
- inhibition at 60 min, 8.5 µM: -20.2 ± 5.96%
- inhibition at 60 min, 8.5 μM: -20.2 ± 5.96%
- inhibition at 60 min, 85 µM: -4.56 ± 3.37%
- inhibition at 60 min, 85 μM: -4.56 ± 3.37%
- inhibition at 60 min, 850 µM: 9.84 ± 1.87%
- inhibition at 60 min, 850 μM: 9.84 ± 1.87%

SMILES: O=c1c(-c2ccc(O)cc2)coc2c([C@@H]3O[C@H](CO)[C@@H](O)[C@H](O)[C@H]3O)c(O)ccc12 [puerarin, Puerarin]
- inhibition at 60 min, 8.5 µM: 3.92 ± 5.61%
- inhibition at 60 min, 85 µM: 18.3 ± 7.68%
- inhibition at 60 min, 850 µM: 10.1 ± 5.84%

SMILES: O=c1c(O)c(-c2ccc(O)c(O)c2)oc2cc(O)cc(O)c12 [quercetin, Quercetin]
- inhibition at 60 min, 8.5 μM: -81.4 ± 5.59%
- inhibition at 60 min, 85 μM: -143 ± 18.5%
- inhibition at 60 min, 850 μM: -119 ± 19.4%

SMILES: C[C@@H]1O[C@@H](Oc2c(-c3ccc(O)c(O)c3)oc3cc(O)cc(O)c3c2=O)[C@H](O)[C@H](O)[C@H]1O [quercitrin, Quercitrin]
- % Inhibition (Mean ± SD) [1]: −81.27 ± 15.027%
- % Inhibition (Mean ± SD) [2]: −83.60 ± 27.446%
- % Inhibition (Mean ± SD) [3]: −55.57 ± 12.151%

SMILES: C[C@@H]1O[C@@H](OC[C@H]2O[C@@H](Oc3c(-c4ccc(O)c(O)c4)oc4cc(O)cc(O)c4c3=O)[C@H](O)[C@@H](O)[C@@H]2O)[C@H](O)[C@H](O)[C@H]1O [rutin, Rutin]
- % Inhibition (Mean ± SD) [1]: −19.854 ± 19.742%
- % Inhibition (Mean ± SD) [2]: −29.414 ± 29.485%
- % Inhibition (Mean ± SD) [3]: −33.458 ± 13.373%

SMILES: C=C[C@H]1[C@H](O[C@@H]2O[C@H](CO)[C@@H](O)[C@H](O)[C@H]2O)OC=C2C(=O)OCC[C@]21O [swertiamarin, Swertiamarin]
- % Inhibition (Mean ± SD) (Table 2, inhibitor 8.5 μM, metabolism of nalbuphine in rat liver microsome): 28.239 ± 2.248%
- % Inhibition (Mean ± SD) (Table 2, inhibitor 85 μM, metabolism of nalbuphine in rat liver microsome): 27.930 ± 4.129%
- % Inhibition (Mean ± SD) (Table 2, inhibitor 850 μM, metabolism of nalbuphine in rat liver microsome): −2.499 ± 6.899%

SMILES: O=C/C=C/c1ccccc1 [trans-cinnamaldehyde, Trans- Cinnamaldehyde]
- inhibition at 60 min, 8.5 µM: -6.97 ± 3.78%
- inhibition at 60 min, 8.5 μM: -6.97 ± 3.78%
- inhibition at 60 min, 85 µM: -3.1 ± 9.46%
- inhibition at 60 min, 85 μM: -3.1 ± 9.46%
- inhibition at 60 min, 850 µM: 18.3 ± 10.3%
- inhibition at 60 min, 850 μM: 18.3 ± 10.3%

SMILES: O=C(O)/C=C/c1ccccc1 [trans-cinnamic acid, Trans-Cinnamic Acid]
- inhibition at 60 min, 8.5 μM: -153 ± 24.9%
- inhibition at 60 min, 85 μM: -109 ± 18.6%
- inhibition at 60 min, 850 μM: -135 ± 3.9%

SMILES: O=c1ccc2ccc(O)cc2o1 [umbelliferone, Umbelliferone]
- inhibition at 60 min, 8.5 µM: -14.7 ± 5.81%
- inhibition at 60 min, 8.5 μM: -14.7 ± 5.81%
- inhibition at 60 min, 85 µM: 4.6 ± 8.24%
- inhibition at 60 min, 85 μM: 4.6 ± 8.24%
- inhibition at 60 min, 850 µM: -20.6 ± 18.2%
- inhibition at 60 min, 850 μM: -20.6 ± 18.2%

SMILES: COc1c(O)cc(O)c2c(=O)cc(-c3ccccc3)oc12 [wogonin, Wogonin]
- inhibition at 60 min, 8.5 μM: -129 ± 8.29%
- inhibition at 60 min, 85 μM: -153 ± 6.49%
- inhibition at 60 min, 850 μM: -136 ± 2.88%

SMILES: O=c1cc(-c2ccccc2)oc2c1ccc1ccccc12 [α-naphthoflavone, α- Naphthoflavone]
- inhibition at 60 min, 8.5 µM: 72.3 ± 2.81%
- inhibition at 60 min, 85 µM: 97.8 ± 4.37%
- inhibition at 60 min, 850 µM: 90.8 ± 7.17%
- inhibition at 60 min [4]: ≥ 30%

SMILES: C=CC(=C)CCC=C(C)C [β-myrcene, β-Myrcene]
- inhibition at 60 min, 8.5 µM: 16.8 ± 1.72%
- inhibition at 60 min, 85 µM: 35.29 ± 0.22%
- inhibition at 60 min, 850 µM: 34.9 ± 7.3%
- inhibition at 60 min [4]: ≥ 30%

SMILES: O=c1cc(-c2ccccc2)oc2ccc3ccccc3c12 [β-naphthoflavone, β- Naphthoflavone]
- inhibition at 60 min, 8.5 µM: 95.8 ± 5.46%
- inhibition at 60 min, 85 µM: 86 ± 16.5%
- inhibition at 60 min, 850 µM: 99.7 ± 15.9%
- inhibition at 60 min [4]: ≥ 30%
